The results in this text go back to US10143716B2, “Pawpaw and/or peach derived composition” (PHOENIX EAGLE COMPANY PTY LTD, priority 2002, dated 2018).

In the data set the test system is PMR or poly-myalga-rheumatica. The data set is described as follows: Example 19B: patient with PMR (poly-myalga-rheumatica), pain relief. As to conditions: for pain relief: PMR pain in neck, shoulders, hands, knees and ankles. Format: in vivo, human.

“Also recorded” adds a separate entry of the source.

On to `Cc1ccc(-c2cc(C(F)(F)F)nn2-c2ccc(S(N)(=O)=O)cc2)cc1` [CELEBREX], for which the pain relief entry is listed as “proved to be effective; also recorded: effective as a painkiller”. Where the note is “human, in vivo”, the side-effects entry is recorded as “did not cause the same side-effects; also recorded: adverse effect on the medication they were taking following a heart attack”.

With `CC(=O)Nc1ccc(O)cc1` [Panamax], the pain relief result is “not effective to relieve their pain”.
